Where no end group is shown, it is not given here.
Assays:
p38 [1] = test: p38 kinase activity in human neutrophils; assay type: cell-based
Experimental: (§1) The cells were lysed and the lysate assessed by western blot analysis for the level of dual-phosphorylated ERK1/ERK2 (top panel) and ERK2 protein (bottom panel). […] The level of myelin basic protein phosphorylation was quantitated by an Instant Imager.
Neutrophils were prepared from peripheral blood of healthy donors by a rapid single-step technique (Kumaratilake, L. M., Rathjen, D. A., Mack, P., Widmer, F., Prasertsiriroj, V., and Ferrante, A. (1995) J. Clin. Invest. 95: 2315-2323) using Hypaque-Ficoll and according to the institution's guidelines on human ethics. […] These were either used as cells in suspension or as adhered neutrophils by adding the cells to plasma coated plates as previously described (Powell, W., Gravel, S., Halwani, F., Hii, C. S., Huang, Z. H., Tan, A. M., and Ferrante, A. (1997) J. Immunol. 159: 2952-2959).
(§2) KHS (hereon referred to as “GCKR”) activity was assayed as described previously using myelin basic protein as a substrate (Shi, C. S., Leonardi, A., Kyriakis, J., Siebenlist, U., and Kerhl, J. H. (1999) J. Immunol. 163: 3279-3285). ASK-1 activation was determined in immunoprecipitates of ASK-1 by autophosphorylation (Kyriakis, J. M., and Auruch, J. (2001) Physiol. Rev. 81: 807-869). p38 and ERK activities were determined as described using myelin basic protein as a substrate (Hii, C. S., Huang, Z. H., Bilney, A., Costabile, M., Murray, A. W., Rathjen, D. A., Der, C. J., and Ferrante, A. (1998) J. Biol. Chem. 273: 19277-19282). […] A solid phase assay using glutathione-S-transferase (GST)-conjugated-jun (1-79) was employed to assay JNK activity (Hii, C. S., Huang, Z. H., Bilney, A., Costabile, M., Murray, A. W., Rathjen, D. A., Der, C. J., and Ferrante, A. (1998) J. Biol. Chem. 273: 19277-19282). Phosphorylated ASK-1, myelin basic protein and GST-jun (1-79) were fractionated on 8, 16 and 12% SDS polyacrylamide gels, respectively, and the bands were detected and radioactivity determined using an Instant Imager (Packard Instruments, Canberra, Australia).
(§3) The level of myelin basic protein phosphorylation was quantitated by an Instant Imager.

neutrophils = test: Neutrophil superoxide production, lucigenin chemiluminescence assay; assay type: cell-based, human
Experimental: Neutrophils were pre-treated with varying concentrations of SB203580 for 30 min and then exposed to 10 μM TNF70-80. The lucigenin enhanced chemiluminescence produced by the cells was measured in a luminometer. The peak initial rate of chemiluminescence produced is presented as the mean±sem of six experiments. The response in the presence of the inhibitor is expressed as a % of the control response.
Neutrophil superoxide production was measured as the chemiluminescence generated by the reduction of lucigenin, essentially as described previously (Kumaratilake, L. M., Rathjen, D. A., Mack, P., Widmer, F., Prasertsiriroj, V., and Ferrante, A. (1995) J. Clin. Invest. 95: 2315-2323). Briefly, to 1×10^6 neutrophils in 400 μl of HBSS was added 100 μl of stimulus and 500 μl of 250 μg/ml of lucigenin. The chemiluminescence was measured in a luminometer (Berthold Technologies, Bad Wildbad, Germany) over a 20 min period and the data imported into Microsoft Excel (Redmond, Wash.).
The cells were placed in a water-jacketed luminometer chamber (37° C.) (Autolumat Plus Model LB 953, Berthold Technologies, Bundoora, Australia) and the resulting light output recorded in millivolts (mV) at 10 second intervals. The data was analysed with Multiuser software (Berthold Tubemaster, Bundoora, Australia). The results are expressed as peak superoxide produced.
Various concentrations of TNFR1 fragment or diluent were added to neutrophils (106 in 100 μl HBSS) and incubated at 37° C. for 30 min 5% CO2 in air. After incubation 500 μl of lucigenin (250 μM, final), 100 μl of TNF70-80 (100 μg) were added and the final volume was adjusted to 1 ml.
Superoxide production by human neutrophils was measured by the reduction of the fluorescent lucigenin, (9,9′-bis(N-methyl-acridinium nitrate) (Sigma Chemical Company). This provides a direct and specific measure of agonist-induced superoxide production. Lucigenin-dependant chemiluminescence was measured as described previously Gyllenhannar H. (1987) J. Immunol. Methods 97:209-213. Briefly, 50 μl of 100 mg/ml of peptide or diluent and 250 ml of lucigenin was added to neutrophils (5×10^5 in 50 μl HBSS). The cells were placed in a water-jacketed luminometer chamber (37° C.) (Autolumat Plus Model LB 953, Berthold Technologies, Bundoora, Australia) and the resulting light output recorded in millivolts (mV) at 10 second intervals. The data was analysed with Multi-user software (Berthold Tubemaster, Bundoora, Australia).
Data are presented as mean±SEM of 3 experiments.

p38 [2] = test: p38 activity in HUVEC (immunoprecipitation, myelin basic protein substrate); assay type: cell-based, human; settings: 5 min; TNF 1,000 U/ml, peptides 10 μM
Experimental: as §3, §2

p38 [3] = test: p38 activation in 70Z/3 cells transfected with hTNFR1 constructs; assay type: cell-based, mouse; settings: 5 min; TNF 1000 U/ml, peptides 10 μM
Experimental: The cells were then lysed, protein contents quantified and subjected to p38 kinase assay by Western blot. The results are presented as the mean+−sem of 3 experiments.
The cells were maintained in RPMI-1640 medium with 4.5 g/L glucose, 2 mM L-glutamine, […] 2-mercaptoethanol and 10% FCS in an atmosphere of 95% air and 5% CO2. Cells were plated onto 10 cm plates at 4×10^7 cells in 15 ml culture medium. Before performing transient transfection, plasmid DNA (hTNFR1), kindly provided by Dr M. Kronke, Institute of Medical Microbiology and Hygiene, Medical Center University of Cologne, Koln, Germany (Adam, D., Wiegmann, K., Adam-Klages, S., Ruff A., and Kronke, M. (1996) J. Biol. Chem. 271: 14617-22), (20 μg in 1 ml of RPMI1640) was mixed with LipofectAMINE 2000 (Invitrogen) (60 μl in 1 ml of RPMI) and the mixture were left at room temperature for 20 min. The mixture was directly added to the cells and incubated for 24 h. The cells were washed twice with HBSS before use.

ERK1/ERK2 = ERK1/ERK2 activation in neutrophils in suspension; assay type: cell-based, human; settings: TNF, TNF70-80 15 min; PMA 100 nM 5 min
Experimental: as §1
Neutrophils were prepared from peripheral blood of healthy donors by a rapid single-step technique (Kumaratilake, L. M., Rathjen, D. A., Mack, P., Widmer, F., Prasertsiriroj, V., and Ferrante, A. (1995) J. Clin. Invest. 95: 2315-2323) using Hypaque-Ficoll and according to the institution's guidelines on human ethics. […]
KHS (hereon referred to as “GCKR”) activity was assayed as described previously using myelin basic protein as a substrate (Shi, C. S., Leonardi, A., Kyriakis, J., Siebenlist, U., and Kerhl, J. H. (1999) J. Immunol. 163: 3279-3285). ASK-1 activation was determined in immunoprecipitates of ASK-1 by autophosphorylation (Kyriakis, J. M., and Auruch, J. (2001) Physiol. Rev. 81: 807-869). p38 and ERK activities were determined as described using myelin basic protein as a substrate (Hii, C. S., Huang, Z. H., Bilney, A., Costabile, M., Murray, A. W., Rathjen, D. A., Der, C. J., and Ferrante, A. (1998) J. Biol. Chem. 273: 19277-19282). […]

JNK = JNK phosphorylation in HL60 cells (western blot); assay type: cell-based; settings: 15 min; TNF 100 U/ml, anisomycin 2.5 μg/ml

EDSGTT [Peptide M4-3]
effect on TNF (mononuclear leukocyte fluid)-induced p38 activation in human neutrophils (p38 [1]; peptide pre-incubated with TNF medium (≈0.12 ng/ml TNF) 20 min, neutrophils 30 min): inhibition of TNF (mononuclear leukocyte fluid)-induced p38 activation

C[S+]([O-])c1ccc(-c2nc(-c3ccncc3)c(-c3ccc(F)cc3)[nH]2)cc1 (stereo not drawn) [SB203580, reference compound]
effect on TNF70-80 stimulated neutrophil chemiluminescence response (neutrophils; pre-incubated with inhibitor 30 min, then 10 μM TNF70-80): significantly reduced

H-Gly-Gly-Asp-Pro-Gly-Ile-Val-Thr-His-Ser-OH (H-GGDPGIVTHS-OH) [control peptide 205, control peptide, reference compound]
activity of p38 in HUVEC (p38 [2]): failed to stimulate p38 | activity of p38 in neutrophils in suspension (p38 [1]; 5 min, TNF 100 or 1000 U/ml, TNF70-80 10-50 μM): did not activate p38 | p38 activation in 70Z/3 cells transfected with wild type hTNFR1 (p38 [3]): failed to activate p38

CCCCCCCCCCCCCC(=O)O[C@@H]1[C@@H](C)[C@@]2(O)[C@@H](C=C(CO)C[C@]3(O)C(=O)C(C)=C[C@@H]23)[C@@H]2C(C)(C)[C@]12OC(C)=O [PMA, reference compound]
activity/dual phosphorylation of ERK in neutrophils in suspension (ERK1/ERK2): increased the dual phosphorylation of ERK1/ERK2

COc1ccc(C[C@H]2NC[C@H](O)[C@H]2OC(C)=O)cc1 [anisomycin, reference compound]
JNK phosphorylation in HL60 cells (JNK): increased JNK phosphorylation

H-Gly-Thr-Thr-OH (listed as Homo sapiens) [Peptide M4-2]
effect on TNF-induced superoxide generation of neutrophils (neutrophils; peptide mixed with TNF at 37° C. for 20 min, then added to neutrophils): Inhibits TNF-Induced Superoxide Generation

His6-Leu-Lys-Pro-Gly-Thr-Thr-OH (HHHHHHLKPGTT-OH; listed as Homo sapiens) [Peptide M4]
effect on TNF70-80-induced superoxide production in neutrophils (neutrophils; TNFR1 fragment pre-incubated with neutrophils 30 min, then TNF70-80 (100 μg)): can block the biological activity of the TNF70-80

Source: patent US8268635B2, “Methods of identifying agents that selectively activate p38 and/or NKkB signaling” (priority 2006, dated 2012)
